According to ChEMBL document CHEMBL4330073, “Discovery and development of small molecule modulators targeting glutamine metabolism” (Eur J Med Chem, 2019):

target: T1, Glutaminase kidney isoform, mitochondrial (Homo sapiens, UniProt O94925); experiment: Inhibition of GAC (unknown origin)
T1 sequence (O94925 whole entry): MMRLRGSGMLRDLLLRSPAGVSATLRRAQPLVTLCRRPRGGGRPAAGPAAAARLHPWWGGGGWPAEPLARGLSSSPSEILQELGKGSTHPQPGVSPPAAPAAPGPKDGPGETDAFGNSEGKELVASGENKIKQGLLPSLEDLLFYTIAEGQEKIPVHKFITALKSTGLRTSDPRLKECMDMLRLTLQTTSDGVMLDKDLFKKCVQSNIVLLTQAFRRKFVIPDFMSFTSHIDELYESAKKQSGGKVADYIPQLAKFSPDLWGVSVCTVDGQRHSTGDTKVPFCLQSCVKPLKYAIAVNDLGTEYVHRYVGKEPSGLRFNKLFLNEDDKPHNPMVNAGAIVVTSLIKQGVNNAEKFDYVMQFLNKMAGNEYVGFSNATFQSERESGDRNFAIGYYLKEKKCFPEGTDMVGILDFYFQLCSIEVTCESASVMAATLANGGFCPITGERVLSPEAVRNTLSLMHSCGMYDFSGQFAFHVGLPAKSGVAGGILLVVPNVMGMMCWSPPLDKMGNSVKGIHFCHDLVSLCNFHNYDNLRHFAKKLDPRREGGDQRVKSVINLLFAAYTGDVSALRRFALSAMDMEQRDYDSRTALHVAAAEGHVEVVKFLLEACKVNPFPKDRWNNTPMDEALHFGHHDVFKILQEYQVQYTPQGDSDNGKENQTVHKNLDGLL

Compared with `O=C(Cc1ccccc1)Nc1nnc([C@H]2CCC[C@H](c3nnc(NC(=O)Cc4ccccc4)s3)C2)s1` (racemic), `O=C(Cc1ccccc1)Nc1nnc([C@@H]2CCC[C@H](c3nnc(NC(=O)Cc4ccccc4)s3)C2)s1` is higher in IC50: under 100 nM for the first, 1000 to 2000 nM for the second.

Compared with `O=C(Cc1ccccc1)Nc1nnc(CCCCc2cc3cc(Cc4ccccc4)[nH]c3nn2)s1`, `O=C(Cc1ccccc1)Nc1nnc(CCCCc2cnc3[nH]c(Cc4ccccc4)nc3c2)s1` is higher in IC50: under 100 nM for the first, over 500 nM for the second. The first is the more potent here.

`O=C(Cc1ccccc1)Nc1ccn(CCCCn2cc(C(=O)NCc3cccc(OC(F)(F)F)c3)nn2)c(=O)c1` and `O=C(Cc1ccccc1)Nc1ccn(CCCCn2cc(C(=O)NCc3cccc(OC(F)(F)F)c3)nn2)c(=O)c1F` cannot be ordered by IC50: under 100 nM for the first, under 100 nM for the second.

`O=C(Cc1ccccc1)Nc1ccn(CCCCc2cc3cc(Cc4ccccc4)[nH]c3nn2)c(=O)c1` and `O=C(NCc1ccccc1)c1cn(CCCCc2cc3cc(Cc4ccccc4)[nH]c3nn2)nn1` cannot be ordered by IC50: under 100 nM for the first, under 100 nM for the second.

`O=C(Cc1ccccc1)Nc1ccn(CCCCc2nnc(NC(=O)Cc3ccccc3)s2)c(=O)n1` and `O=C(Cc1ccccc1)Nc1ccn(CCCCc2nnc(NC(=O)Cc3ccccc3)s2)c(=O)c1` cannot be ordered by IC50: under 100 nM for the first, under 100 nM for the second.

`O=C(Cc1ccccc1)Nc1ccn(CCCCc2ccc(NC(=O)Cc3cccc(OC(F)(F)F)c3)nn2)c(=O)c1` and `O=C(Cc1ccccc1)Nc1nnc(CCCCn2ccc(NC(=O)Cc3ccccc3)c(F)c2=O)s1` cannot be ordered by IC50: under 100 nM for the first, under 100 nM for the second.

First: O=C(Cc1ccccc1)Nc1nnc([C@@H]2CC[C@H](c3nnc(NC(=O)Cc4ccccc4)s3)C2)s1
Second: O=C(Cc1ccccc1)Nc1nnc([C@H]2CC[C@H](c3nnc(NC(=O)Cc4ccccc4)s3)C2)s1 (racemic)
The IC50 of the first is higher: 1000 to 2000 nM for the first, 100 to 500 nM for the second. The second is the more potent here.

First: O=C(Cc1ccccc1)Nc1nnc(C[C@H]2C[C@@H]2Cc2nnc(NC(=O)Cc3ccccc3)s2)s1 (racemic)
Second: O=C(Cc1ccccc1)Nc1ccn(CCCCn2ccc(NC(=O)Cc3ccccc3)nc2=O)c(=O)n1
The IC50 of the first is lower: 100 to 500 nM for the first, over 500 nM for the second.

target: T1, Glutaminase kidney isoform, mitochondrial; experiment: Inhibition of human GAC after 10 mins by glutamate oxidase coupled Amplex UltraRed dye based assay

First: O=C(NCc1ccccc1)c1cn(CCCCn2cc(C(=O)NCc3cccc(C(F)(F)F)n3)nn2)nn1
Second: O=C(NCc1cccc(C(F)(F)F)c1)c1cn(CCCCn2cc(C(=O)NCc3cccc(C(F)(F)F)n3)nn2)nn1
The IC50 of the first is higher: 100 to 500 nM for the first, under 100 nM for the second. The second is the more potent here.

`CNC(=O)c1cn(CCCCc2ccc(C(=O)NCc3ccccc3)nn2)nn1` and `O=C(Cc1ccccc1)Nc1nnc(CCCCn2cc(C(=O)NCc3ccccc3)nn2)s1` cannot be ordered by IC50: under 100 nM for the first, under 100 nM for the second.

For `O=C(NCC1CCCCC1)c1cn(CCCCn2cc(C(=O)NCC3CCCCC3)nn2)nn1`, the IC50 was over 500 nM.

target: T2, Glutaminase kidney isoform, mitochondrial (Homo sapiens) (UniProt O94925); experiment: Inhibition of recombinant GAC (unknown origin) at 0.1 uM after 15 mins in presence of NADPH by glutamate oxidase coupled spectrophotometric analysis relative to control
T2 sequence (whole entry): T1 sequence (O94925 whole entry)

`Cc1nc(NC(=O)Cc2cccc(OC(F)(F)F)c2)ccc1CCCCc1nnc(NC(=O)Cc2ccccn2)s1` and `O=C(Cc1cccc(OC(F)(F)F)c1)Nc1ccc(CCCCc2nnc(NC(=O)Cc3ccccn3)s2)nc1` cannot be ordered by inhibition: under 25% for the first, under 25% for the second.

`O=C(Cc1cccc(OC(F)(F)F)c1)Nc1ncc(CCCCc2nnc(NC(=O)Cc3ccccn3)s2)cn1` and `O=C(Cc1cccc(OC(F)(F)F)c1)Nc1cnc(CCCCc2nnc(NC(=O)Cc3ccccn3)s2)cn1` cannot be ordered by inhibition: under 25% for the first, under 25% for the second.

target: T1, Glutaminase kidney isoform, mitochondrial; experiment: Inhibition of recombinant GAC (unknown origin) after 15 mins in presence of NADPH by glutamate oxidase coupled spectrophotometric analysis

In the case of `O=C(Cc1cccc(OC(F)(F)F)c1)Nc1ccc(CCCCc2nnc(NC(=O)Cc3ccccn3)s2)cn1`, the IC50 is reported as 50 to 100 nM.

organism: Bos taurus; experiment: Inhibition of bovine GDH

`O=C(O[C@@H]1Cc2c(O)cc(O)cc2O[C@@H]1c1cc(O)c(O)c(O)c1)c1cc(O)c(O)c(O)c1` and `O=C(O[C@@H]1Cc2c(O)cc(O)cc2O[C@@H]1c1ccc(O)c(O)c1)c1cc(O)c(O)c(O)c1` are the same in ED50: 300 nM for the first, 300 nM for the second.

target: T3, Cystine/glutamate transporter (Homo sapiens, UniProt Q9UPY5); experiment: Inhibition of xCT-mediated cystein/glutamate transporter (unknown origin) assessed as reduction in L-[14C]cyctein uptake
T3 sequence (Q9UPY5 whole entry): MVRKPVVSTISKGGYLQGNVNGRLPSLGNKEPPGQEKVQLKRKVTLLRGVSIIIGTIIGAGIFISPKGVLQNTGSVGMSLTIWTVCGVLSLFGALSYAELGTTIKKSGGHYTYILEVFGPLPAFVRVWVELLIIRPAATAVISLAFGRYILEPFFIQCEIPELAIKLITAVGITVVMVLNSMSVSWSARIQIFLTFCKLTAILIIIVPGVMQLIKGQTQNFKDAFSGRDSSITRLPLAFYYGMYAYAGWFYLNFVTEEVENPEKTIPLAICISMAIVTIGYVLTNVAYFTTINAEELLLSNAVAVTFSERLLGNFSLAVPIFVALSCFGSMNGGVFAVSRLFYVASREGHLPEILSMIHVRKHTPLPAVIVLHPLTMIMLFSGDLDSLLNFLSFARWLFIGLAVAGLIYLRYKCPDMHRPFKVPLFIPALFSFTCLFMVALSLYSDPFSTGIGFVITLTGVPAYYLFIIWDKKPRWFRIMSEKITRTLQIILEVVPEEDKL

`O=C(O)c1cc(/C=C/c2ccc(S(=O)(=O)Nc3ccccn3)cc2)ccc1O` and `O=C(O)c1cc(/N=N/c2ccc(S(=O)(=O)Nc3ccccn3)cc2)ccc1O` [SULFASALAZINE] cannot be ordered by IC50: 30000 nM for the first, 160 to 30000 nM for the second.

`O=C(O)c1cc(C#Cc2ccc(S(=O)(=O)Nc3ccccn3)cc2)ccc1O` gave an IC50 of 70000 nM.
